Data as given in patent US10577363B2, “Substituted piperidine compounds” (EPIZYME, INC., priority 2014, dated 2020).
pIC50: −log10 of the molar value.

Key:
SMYD3 [1] = biological target: T1, SMYD3 (Homo sapiens (Human), UniProt Q9H7B4); test: SMYD3 biochemical assay (SPA, 3H-SAM methylation of MEKK2 protein substrate); settings: read-out: SMYD3 Biochem IC50*
Method in brief: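 Full-length native human SMYD3 (E. coli-expressed, tags removed) preincubated with compounds 30 min at room temperature, then reaction started with 3H-SAM and GST-tagged MEKK2 protein in 25 mM Tris-Cl pH 8.0, 1 mM TCEP, 0.005% BSG, 0.005% Tween 20. Quenched with unlabelled SAM (100 uM final); 3H-MEKK2 counted by SPA.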

SMYD3 [2] = biological target: T1, SMYD3; test: SMYD3 cell assay (Trimethyl-MEKK2 In-Cell Western in 293T/17 cells); type: cell-based; settings: read-out: SMYD3 Cell IC50*
Method in brief: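 In-Cell Western ratio of trimethyl-Lys260 MEKK2 to anti-flag signal; percent inhibition from DMSO and maximum-inhibition controls, IC50 by non-linear regression, triplicates.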

T1 sequence (Q9H7B4 whole entry): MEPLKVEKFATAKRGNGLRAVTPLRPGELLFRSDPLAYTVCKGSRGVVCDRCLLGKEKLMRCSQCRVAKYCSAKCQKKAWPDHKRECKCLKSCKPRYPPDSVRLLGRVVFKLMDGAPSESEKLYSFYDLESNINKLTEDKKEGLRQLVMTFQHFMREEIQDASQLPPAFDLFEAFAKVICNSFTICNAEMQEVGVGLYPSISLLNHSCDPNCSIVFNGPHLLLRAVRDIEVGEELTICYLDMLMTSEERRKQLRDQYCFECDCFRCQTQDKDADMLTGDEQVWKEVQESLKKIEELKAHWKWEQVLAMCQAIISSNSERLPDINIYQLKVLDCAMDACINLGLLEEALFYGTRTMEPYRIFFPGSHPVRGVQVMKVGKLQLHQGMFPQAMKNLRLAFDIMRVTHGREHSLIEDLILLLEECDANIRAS

| SMILES | pIC50 (SMYD3 [1]) | pIC50 (SMYD3 [2]) |
| --- | --- | --- |
| O=C(N[C@H]1C[C@H]2CC[C@@H](C1)N2S(=O)(=O)[C@@H]1CCCCNC1)c1cc(C2CC2)on1 [compound 878, N-((1R,3R,5S)-8-(((R)-azepan-3-yl)sulfonyl)-8-azabicyclo[3.2.1]octan-3-yl)-5-cyclopropylisoxazole-3-carboxamide] | 8.00 | 6.62 |
| CC(C)c1cc(C(=O)N[C@H]2C[C@H]3CC[C@@H](C2)N3S(=O)(=O)CC2CCN(C)CC2)no1 [compound 879, 5-isopropyl-N-((1R,3r,5S)-8-(((1-methylpiperidin-4-yl)methyl)sulfonyl)-8-azabicyclo[3.2.1]octan-3-yl)isoxazole-3-carboxamide] | 7.97 | 6.69 |
| CN(Cc1ccccc1)C1CCN(S(=O)(=O)N2[C@@H]3CC[C@H]2C[C@@H](NC(=O)c2cc(C4CC4)on2)C3)CC1 [compound 880, N-((1R,3r,5S)-8-((4-(benzyl(methyl)amino)piperidin-1-yl)sulfonyl)-8-azabicyclo[3.2.1]octan-3-yl)-5-cyclopropylisoxazole-3-carboxamide] | 7.96 | 6.34 |
| O=C(N[C@H]1C[C@H]2CC[C@@H](C1)N2S(=O)(=O)N1CC2CCC(C1)N2CCO)c1cc(C2CC2)on1 [compound 881, 5-cyclopropyl-N-((1R,3r,5S)-8-((8-(2-hydroxyethyl)-3,8-diazabicyclo[3.2.1]octan-3-yl)sulfonyl)-8-azabicyclo[3.2.1]octan-3-yl)isoxazole-3-carboxamide] | 7.96 | 7.16 |
| C[C@@H](C1CCNCC1)S(=O)(=O)N1[C@@H]2CC[C@H]1C[C@@H](NC(=O)c1cc(C3CC3)on1)C2 [compound 882, 5-cyclopropyl-N-((1R,3S,5S)-8-(((S)-1-(piperidin-4-yl)ethyl)sulfonyl)-8-azabicyclo[3.2.1]octan-3-yl)isoxazole-3-carboxamide] | 7.95 | 7.07 |
| O=C(N[C@H]1C[C@H]2CC[C@@H](C1)N2S(=O)(=O)[C@H]1CCCCNC1)c1cc(C2CC2)on1 [compound 883, N-((1R,3S,5S)-8-(((S)-azepan-3-yl)sulfonyl)-8-azabicyclo[3.2.1]octan-3-yl)-5-cyclopropylisoxazole-3-carboxamide] | 7.92 | 6.89 |
| O=C(N[C@H]1C[C@H]2CC[C@@H](C1)N2S(=O)(=O)NC1CCN[C@@H](Cc2ccccc2)C1)c1cc(C2CC2)on1 (stereo partly drawn) [compound 884, N-((1R,3S,5S)-8-(N-((2S)-2-benzylpiperidin-4-yl)sulfamoyl)-8-azabicyclo[3.2.1]octan-3-yl)-5-cyclopropylisoxazole-3-carboxamide] | 7.92 | 6.55 |
| CN[C@H]1CC[C@H](S(=O)(=O)N2CC[C@@H](NC(=O)c3cc(C4CC4)on3)[C@@H](C)C2)CC1 [compound 885, 5-cyclopropyl-N-((3S,4R)-3-methyl-1-(((1r,4S)-4-(methylamino)cyclohexyl)sulfonyl)piperidin-4-yl)isoxazole-3-carboxamide] | 7.92 | 6.80 |
| C[C@H]1C[C@@H](NS(=O)(=O)N2[C@@H]3CC[C@H]2C[C@@H](NC(=O)c2cc(C4CC4)on2)C3)CCN1 [compound 886, 5-cyclopropyl-N-((1R,3S,5S)-8-(N-((2S,4S)-2-methylpiperidin-4-yl)sulfamoyl)-8-azabicyclo[3.2.1]octan-3-yl)isoxazole-3-carboxamide] | 7.92 | 6.69 |
| CC1CN(S(=O)(=O)N2[C@@H]3CC[C@H]2C[C@@H](NC(=O)c2cc(C4CC4)on2)C3)CCN1 (stereo partly drawn) [compound 887, 5-cyclopropyl-N-((1R,3r,5S)-8-((3-methylpiperazin-1-yl)sulfonyl)-8-azabicyclo[3.2.1]octan-3-yl)isoxazole-3-carboxamide] | 7.91 | 7.06 |
| COCCCN1C2CCC1CN(S(=O)(=O)N1[C@@H]3CC[C@H]1C[C@@H](NC(=O)c1cc(C4CC4)on1)C3)C2 [compound 888, 5-cyclopropyl-N-((1R,3r,5S)-8-((8-(3-methoxypropyl)-3,8-diazabicyclo[3.2.1]octan-3-yl)sulfonyl)-8-azabicyclo[3.2.1]octan-3-yl)isoxazole-3-carboxamide] | 7.91 | 6.93 |
| CCN(CC)C1CCN(S(=O)(=O)N2[C@@H]3CC[C@H]2C[C@@H](NC(=O)c2cc(C4CC4)on2)C3)CC1 [compound 889, 5-cyclopropyl-N-((1R,3r,5S)-8-((4-(diethylamino)piperidin-1-yl)sulfonyl)-8-azabicyclo[3.2.1]octan-3-yl)isoxazole-3-carboxamide] | 7.90 | 6.66 |
| CC1CC(N)CCN1S(=O)(=O)N1CC[C@H](NC(=O)c2cc(C3CC3)on2)C[C@@H]1C (stereo partly drawn) [compound 890, N-((2S,4S)-1-((4-amino-2-methylpiperidin-1-yl)sulfonyl)-2-methylpiperidin-4-yl)-5-cyclopropylisoxazole-3-carboxamide] | 7.88 | 6.62 |
| NC1[C@@H]2CC[C@H]1CN(S(=O)(=O)N1[C@@H]3CC[C@H]1CC(NC(=O)c1cc(C4CC4)on1)C3)C2 (stereo partly drawn) [compound 891, N-((1R,3R,5S)-8-(((1R,5S)-8-amino-3-azabicyclo[3.2.1]octan-3-yl)sulfonyl)-8-azabicyclo[3.2.1]octan-3-yl)-5-cyclopropylisoxazole-3-carboxamide] | 7.88 | 6.84 |
| O=C(N[C@H]1C[C@H]2CC[C@@H](C1)N2S(=O)(=O)N1CCC(NCc2ccc(C(F)(F)F)cc2)CC1)c1cc(C2CC2)on1 [compound 892, 5-cyclopropyl-N-((1R,3r,5S)-8-((4-((4-(trifluoromethyl)benzyl)amino)piperidin-1-yl)sulfonyl)-8-azabicyclo[3.2.1]octan-3-yl)isoxazole-3-carboxamide] | 7.87 | 6.57 |
| CN1CCC(NS(=O)(=O)N2[C@@H]3CC[C@H]2C[C@@H](NC(=O)c2cc(C4CC4)on2)C3)CC1 [compound 893, 5-cyclopropyl-N-((1R,3r,5S)-8-(N-(1-methylpiperidin-4-yl)sulfamoyl)-8-azabicyclo[3.2.1]octan-3-yl)isoxazole-3-carboxamide] | 7.86 | 6.62 |
| CN1CCC([C@@H](Cc2ccccc2)S(=O)(=O)N2[C@@H]3CC[C@H]2C[C@@H](NC(=O)c2cc(C4CC4)on2)C3)CC1 [compound 894, 5-cyclopropyl-N-((1R,3R,5S)-8-(((R)-1-(1-methylpiperidin-4-yl)-2-phenylethyl)sulfonyl)-8-azabicyclo[3.2.1]octan-3-yl)isoxazole-3-carboxamide] | 7.86 | 6.55 |
| CN1CC2CCC1CN2S(=O)(=O)N1[C@@H]2CC[C@H]1C[C@@H](NC(=O)c1cc(C3CC3)on1)C2 [compound 895, 5-cyclopropyl-N-((1R,3r,5S)-8-((5-methyl-2,5-diazabicyclo[2.2.2]octan-2-yl)sulfonyl)-8-azabicyclo[3.2.1]octan-3-yl)isoxazole-3-carboxamide] | 7.86 | 6.73 |
| CC1(N)CCC(S(=O)(=O)N2[C@@H]3CC[C@H]2C[C@@H](NC(=O)c2cc(C4CC4)on2)C3)CC1 (stereo partly drawn) [compound 896, N-((1R,3R,5S)-8-(((1r,4R)-4-amino-4-methylcyclohexyl)sulfonyl)-8-azabicyclo[3.2.1]octan-3-yl)-5-cyclopropylisoxazole-3-carboxamide] | 7.85 | 7.06 |
| O=C(N[C@H]1C[C@H]2CC[C@@H](C1)N2S(=O)(=O)NC1CCNCC1)c1cc(C2CC2)on1 [compound 897, 5-cyclopropyl-N-((1R,3r,5S)-8-(N-(piperidin-4-yl)sulfamoyl)-8-azabicyclo[3.2.1]octan-3-yl)isoxazole-3-carboxamide] | 7.85 | 6.37 |
| C[C@@H](NC1CCN(S(=O)(=O)N2CC[C@H](NC(=O)c3cc(C4CC4)on3)C[C@@H]2C)CC1)c1ccccc1 [compound 898, 5-cyclopropyl-N-((2S,4S)-2-methyl-1-((4-(((R)-1-phenylethyl)amino)piperidin-1-yl)sulfonyl)piperidin-4-yl)isoxazole-3-carboxamide] | 7.84 | 6.62 |
| COCCCN(C)C1CCN(S(=O)(=O)N2[C@@H]3CC[C@H]2C[C@@H](NC(=O)c2cc(C4CC4)on2)C3)CC1 [compound 899, 5-cyclopropyl-N-((1R,3r,5S)-8-((4-((3-methoxypropyl)(methyl)amino)piperidin-1-yl)sulfonyl)-8-azabicyclo[3.2.1]octan-3-yl)isoxazole-3-carboxamide] | 7.84 | 6.77 |
| CN[C@H]1CC[C@@H](S(=O)(=O)N2CC[C@@H](NC(=O)c3cc(C4CC4)on3)[C@@H](C)C2)CC1 [compound 900, 5-cyclopropyl-N-((3S,4R)-3-methyl-1-(((1s,4R)-4-(methylamino)cyclohexyl)sulfonyl)piperidin-4-yl)isoxazole-3-carboxamide] | 7.84 | 6.75 |
| CC1CNCCN1S(=O)(=O)N1[C@@H]2CC[C@H]1C[C@@H](NC(=O)c1cc(C3CC3)on1)C2 (stereo partly drawn) [compound 901, 5-cyclopropyl-N-((1R,3r,5S)-8-((2-methylpiperazin-1-yl)sulfonyl)-8-azabicyclo[3.2.1]octan-3-yl)isoxazole-3-carboxamide] | 7.82 | 7.01 |
| CCC1CNCCN1S(=O)(=O)N1[C@@H]2CC[C@H]1C[C@@H](NC(=O)c1cc(C3CC3)on1)C2 (stereo partly drawn) [compound 902, 5-cyclopropyl-N-((1R,3r,5S)-8-((2-ethylpiperazin-1-yl)sulfonyl)-8-azabicyclo[3.2.1]octan-3-yl)isoxazole-3-carboxamide] | 7.82 | 6.81 |
| CC1CC(CS(=O)(=O)N2CC[C@H](NC(=O)c3cc(C4CC4)on3)C[C@@H]2C)CC(C)N1 (stereo partly drawn) [compound 903, 5-cyclopropyl-N-((2S,4S)-1-(((2,6-dimethylpiperidin-4-yl)methyl)sulfonyl)-2-methylpiperidin-4-yl)isoxazole-3-carboxamide] | 7.79 | 6.56 |
